Experimental data reported in US6395750B1, “Drugs for the treatment of malignant tumors” (Active Biotech AB, priority 1999, dated 2002).
Marks after values point to notes of the source that are not given here. Blank lines part the entries; values can stand above or below the compound they belong to.

Tests used:
[1] = tested on: Dunning R-3327 rat prostatic cancers; settings: literature report; cited from earlier work
[2] = tested on: Dunning R-3327 AT-1 tumour; test: Primary screen: tumour growth inhibition, Dunning R-3327 AT-1 prostatic cancer transplanted sc; assay type: in vivo, rat
Method: The compounds of general formula (I) were assayed for their capacity to inhibit of growth of the Dunning R-3327 AT-1 tumour, a prostatic rat cancer.
R-3327 AT-1 Prostatic cancer in man is an angiogenic type of solid tumour. The Dunning R-3327 AT-1 is a prostatic cancer of the rat and suits as an experimental animal model for this disease. The AT-1 tumour is serially transplanted subcutaneously (sc) on syngeneic rats of the Copenhagen strain. Small pieces of the tumour are transplanted sc to recipient rats and treatment of the tumour bearing rats start when the tumours are easily measurable approximately on day 10 after transplantation. Doses of the compounds are given either orally or parentally 5 days a week for four weeks. The tumour growth and body weight gain are monitored during the experimental time.

[3] = beagle dog, literature; cited from earlier work
[4] = patients with renal cell carcinoma; cited from earlier work
[5] = Beagle Pain Syndrome, pro-inflammatory reaction (ESR, AP); assay type: in vivo, beagle dog; settings: beagle dogs, five consecutive days
[6] = 8 mg/kg ip, treatment given on Day 11

Compound: CN(C(=O)c1c(O)c2ccccc2n(C)c1=O)c1ccccc1 [Compound E, N-methyl-N-phenyl-1,2-dihydro-4-hydroxy-1-methyl-2-oxo-quinoline-3-carboxamide]
antitumour effects [1]: antitumour effects
% Tumour Weight Reduction ([2]; 4 mg/kg sc): 30%
inhibition of growth of the Dunning R-3327 AT-1 tumour ([2]; 4 mg/kg, positive treatment control): 30%
induction of beagle pain syndrome (fever, myalgia, arthralgia, arteritis) [3]: induces the beagle pain syndrome
patients withdrawn or having dose reductions due to adverse events [4]: 40%

Compound: CN(C(=O)c1c(O)c2c(Cl)cccc2n(C)c1=O)c1ccc(Cl)cc1 [B, N-methyl-N-(4-chloro-phenyl)-1,2-dihydro-4-hydroxy-5-chloro-1-methyl-2-oxo-quinoline-3-carboxamide]
% Tumour Weight Reduction ([2]; 2 mg/kg po): 28%

AP percentage change (Day 8 - baseline) ([5]; 1 mg/kg p. o.): 25%
ESR percentage change (Day 8 - baseline) ([5]; 1 mg/kg p. o.): 177%
AP percentage change (Day 8 - baseline) ([5]; 10 mg/kg p. o.): 109%
ESR percentage change (Day 8 - baseline) ([5]; 10 mg/kg p. o.): 515%
Compound: CCN(C(=O)c1c(O)c2c(Cl)cccc2n(C)c1=O)c1ccccc1 [Compound A, N-ethyl-N-phenyl-1,2-dihydro-4-hydroxy-5-chloro-1-methyl-2-oxo-quinoline-3-carboxamide]
% Tumour Weight Reduction ([2]; 2 mg/kg sc): 37%

Compound: Cc1cccc2c1c(N)c(C(=O)N(C)c1ccccc1)c(=O)n2C [Compound D, N-methyl-N-phenyl-4-amino-1,2-dihydro-1,5-dimethyl-2-oxo-quinoline-3-carboxamide]
% Tumour Weight Reduction ([2]; 2 mg/kg sc): 38%

Compound: COc1cccc2c1C(=O)c1c(O)c3c(c(O)c1C2=O)C[C@@](O)(C(=O)CO)C[C@@H]3O[C@H]1C[C@H](N)[C@H](O)[C@H](C)O1 [doxorubicin]
% Tumour Weight Reduction ([2]; 4 mg/kg ip, treatment given on Day 11): 0%
% Tumour Weight Reduction [2, 6]: 31^b) %
body weight effect [2, 6]: ^b)8 mg/kg of doxorubicin caused a body weight loss

Compound: CC[C@]1(O)C[C@@H]2CN(CCc3c([nH]c4ccccc34)[C@@](C(=O)OC)(c3cc4c(cc3OC)N(C)[C@H]3[C@@](O)(C(=O)OC)[C@H](OC(C)=O)[C@]5(CC)C=CCN6CC[C@]43[C@@H]65)C2)C1 [vinblastine]
% Tumour Weight Reduction ([2]; 1 mg/kg iv, treatment given on Day 11): 0%
% Tumour Weight Reduction ([2]; 4 mg/kg iv, treatment given on Day 11): toxic

Compound: CSc1cccc2c1c(O)c(C(=O)N(C)c1ccc(F)cc1F)c(=O)n2C [C, N-methyl-N-(2,4-difluoro-phenyl)-1,2-dihydro-4-hydroxy-5-thiomethyl-1-methyl-2-oxo-quinoline-3-carboxamide]
% Tumour Weight Reduction ([2]; 2 mg/kg po): 39%
